Data on 3 compounds can be found in ChEMBL document CHEMBL6078630, “Design, synthesis, and bioactivity investigation of novel cyclic lipopeptide antibiotics targeting top-priority multidrug-resistant gram-negative bacteria” (Eur J Med Chem, 2024).

In general, MTD refers to the largest dose that counted as tolerated. As usually defined, the ED50 is the dose at which the effect has come halfway, by size or by number of responders. As a reminder, the fraction unbound is the share of the substance not bound to proteins or other matrix.

A short description of series [1]: Acute toxicity in iv dosed Swiss mouse assessed as maximum tolerated dose measured after 24 hrs. The conditions noted are these: in vivo. It is filed as organism-based.
Series [2] concerns Pseudomonas aeruginosa. Description: Antibacterial activity against Pseudomonas aeruginosa ATCC 27853 infected in ICR mouse model administered intravenously with compound at 1 and 6 hrs post-infection and measured after 7 days. The conditions noted are these: ATCC 27853, 168 h, route iv, time 7 day. It is filed as functional.
The test system of series [3] is Pseudomonas aeruginosa. Description: Antibacterial activity against Pseudomonas aeruginosa ATCC 27853 infected in ICR mouse model infected in ICR mouse model assessed as survival rate at 20 mg/kg, iv administered at 1 and 6 hrs post-infection and measured after 7 days relative to control. It is filed as functional. The conditions noted are these: ATCC 27853, 168 h, time 7 day.

A short description of series [4]: Protein binding in human plasma assessed as unbound fraction at 0.2 uM incubated for 6 hrs by LC-MS/MS analysis. It is filed as ADME, cell-free.

Bridge positions count the residues as written; N and C are the ends. Square brackets hold non-standard residues; d marks the D form. Peptide text beside a SMILES is read from it. * marks the point of attachment. Heptanoyl(6-Me) = CC(C)CCCCC(=O)*; Octanoyl(6-Me) = CCC(C)CCCCC(=O)*; Dab = NCC[C@H](N)C(=O)O

Consider `CCC(C)CCCCC(=O)N[C@@H](CCN)C(=O)N[C@H](C(=O)N[C@@H](CCN)C(=O)N[C@H]1CCNC(=O)[C@H]([C@@H](C)O)NC(=O)[C@H](CCN)NC(=O)[C@H](CCN)NC(=O)[C@H](CC(C)C)NC(=O)[C@@H](CC(C)C)NC(=O)[C@H](CCN)NC1=O)[C@@H](C)O` (stereo partly drawn) ({Octanoyl(6-Me)}-[Dab]T[Dab][Dab][Dab][dL]L[Dab][Dab]T; lactam 4-C), for which the MTD at 24 h in series [1] came to 5.3 mg/kg.

Take `C[C@@H](O)[C@H]1C(=O)N2C(C(=O)O)=C(S[C@@H]3CN[C@H](C(=O)N(C)C)C3)[C@H](C)[C@H]12` [MEROPENEM]: in the series with Pseudomonas aeruginosa [2], the ED50 worked out at 7.07 mg/kg. Besides, in the series on Pseudomonas aeruginosa [3], the survival at 20 mg/kg amounted to 100%.

Take `CC(C)CCCCC(=O)N[C@@H](CCN)C(=O)N[C@H](C(=O)N[C@@H](CCN)C(=O)N[C@H]1CCNC(=O)[C@H]([C@@H](C)O)NC(=O)[C@H](CCN)NC(=O)[C@H](CCN)NC(=O)[C@H](CC(C)C)NC(=O)[C@@H](Cc2ccccc2)NC(=O)[C@H](CCN)NC1=O)[C@@H](C)O` ({Heptanoyl(6-Me)}-[Dab]T[Dab][Dab][Dab][dF]L[Dab][Dab]T; lactam 4-C): the unbound share (fraction unbound) at 6 h, 0.2 µM in series [4] is 0.099.
